In article PMC4721142, “Randomized controlled studies on the efficacy of antiarthritic agents in inhibiting cartilage degeneration and pain associated with progression of osteoarthritis in the rat” (Arthritis Research & Therapy, 2016):
Values joined by “and” are separate entries in the source; they are usually repeats but may differ in a detail not shown here. Equal entries are not always repeated.

Key:
[1] = tested on: MIA rat model of OA; assay: MIA trial 3 digital Randall-Selitto test (weekly i.a. clonidine 4.5 μg, tacrolimus 30 ng, fluocinolone 15 ng, meloxicam 100 μg, tranilast 500 ng, TH 150 μg; clonidine 100 μg/kg s.c.); format: in vivo
Description: The digital Randall-Selitto (dRS) test is said to be a reliable and repeatable measure of neuropathic, bone, and inflammatory pain behavior in several different models, including those of arthritic or joint pain [29, 31, 32]. Baseline and posttreatment values were evaluated using a dRS test device (IITC Life Science, Woodland Hills, CA, USA). Animals were allowed to acclimate to the testing room before all experimentation and for a minimum of 30 minutes before testing. To ensure that their hind limbs were accessible, the animals were gently suspended in a restraint sling. The joint compression threshold was measured once at each time point for the ipsilateral and contralateral knee joints. Pressure was applied gradually over approximately 10 seconds to the medial and lateral aspects of the knee joint. Measurements were taken from the first observed behavior of vocalization, struggle, or withdrawal. A cutoff value of 600 g was used to prevent injury to the animal.
Following isoflurane anesthesia, 50 μl (2 mg) of MIA was injected into the synovial space of the left knee. Animals were randomly assigned to groups, and pain behavior was assessed 7, 14, 21, and 28 days following MIA injection and intervention using WB with the Stoelting incapacitance meter (trial 1) or the dRS test (trials 2 and 3). […] Animals received MIA treatment and then saline control or therapeutic. […] Histopathology was performed at each time point and at study termination. All studies were conducted in accordance with the International Association for the Study of Pain Guidelines and were approved by the Algos Therapeutics, Inc. Institutional Animal Care and Use Committee (IACUC) before initiation. Those running the studies were blind to the treatments. See Additional file 1 for further details. […]
struggle or withdrawal. A cut-off value of 600 g was used to prevent injury to the animal. The mean and standard error of the mean (SEM) were determined for each treatment group.
Statistical significance was assigned as p ≤ 0.05. The stability of the vehicle group over time was assessed on each testing day (Days 7, 14, 21, and 28) using repeated measures one-way analysis of variance (ANOVA) comparing joint compression thresholds at each experimental time point on a given testing day versus that testing day’s pre-treatment value. Osteoarthritis-related pain in the vehicle group was estimated at each time point on each testing day by comparing ipsilateral (injured) to contralateral (normal) joint compression thresholds using paired t-tests. The progression of osteoarthritis-related pain in the vehicle group was estimated by comparing pre-treatment joint compression thresholds on each testing day versus pre-MIA measurements using repeated measures one-way ANOVA. […]
thresholds at each experimental time point on a given testing day with vehicle treated animals using an unpaired t-test. The acute effect of Tacrolimus was analyzed by comparing joint compression thresholds at each time point on a given testing day with the corresponding pre-treatment baseline values using repeated measures one-way ANOVA and compared to vehicle treated animals using […]
values using repeated measures one-way ANOVA. Chronic effects were analyzed by comparing pre-treatment joint compression thresholds on each testing day versus the appropriate Day 7 pre-treatment values using repeated measures one-way ANOVA and by comparing pre-treatment joint compression thresholds with vehicle treated animals on each testing day using an unpaired t-test or one-way ANOVA. Day 7 pre-treatment joint compression thresholds between all groups were assessed using one-way ANOVA. The Dunnett’s multiple comparison post hoc test was used when […]
dosing were housed three per cage. Animals had free access to food and water and were maintained […]
The animal colony was maintained at approximately 21 °C. All experiments were conducted in accordance with the International Association for the Study of Pain Guidelines.

[2] = Comparison of in vitro screens: overlapping effective and nontoxic range;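 note: compares non-toxic ranges in synovial cells and chondrocytes with effective ranges against NFkB, MMP-13 and osteoclasts, giving their overlap as the predicted efficacy range in uM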
[3] = tested on: RAW 264.7 cells; assay: RANKL-mediated osteoclastogenesis / matrix resorption (Osteologic) assay; format: cell-based, murine
Description: RAW 264.7 cells (American Type Culture Collection [ATCC], Manassas, VA, USA), a murine monocytic cell line that differentiates in the presence of RANKL, was used for measurements of osteoclastogenesis and osteoclast activity. Cells were amplified on nonadherent culture substratum in high-glucose Dulbecco’s modified Eagle’s medium (DMEM) containing 10 % fetal bovine serum (FBS) and penicillin-streptomycin in a 37 °C, 5 % CO2, humidified incubator and were passaged by manual dissociation. […] Plates were subsequently rinsed, bleached, dried, and analyzed for matrix degradation using a Nikon COOLSCOPE (Nikon Instruments, Melville, NY, USA). Matrix resorption was quantified using EclipseNet (Nikon Instruments)/Visiopharm (Visiopharm, Hørsholm, Denmark) software (see Additional file 1).
In Vitro Osteoclastogenesis
Osteoclastogenic activity was measured using BD osteologic plates and quantitation of the degree of bone matrix digestion on the plate surface. Images from the BD Osteologic assay used to […]
left pane depicts an example of a control well after removal of cells from matrix. Pseudocoloring of matrix (blue) and pits (green) is shown in the far right pane. A transparent overlay of the two images is shown in the center.
Figure 5 - Measurement of drug effects on osteoclastogenesis and osteoclast activity.
Comparisons were made between RANKL treated control wells and wells treated with both RANKL and […]
Agents were initially tested either during differentiation or post differentiation in the bone assay […]
(e.g., Figure 2, Sulfazalazine). […]
indicated (*/**: p < 0.05/0.01, unpaired t-test versus RANKL control). […]

[4] = tested on: SW982; assay: Synovial toxicity (CellTiter-Glo), with or without TNF-α
[5] = tested on: MIA rat model of OA; assay: MIA trial 3 histopathology (same doses as dRS test); format: in vivo; design: key to Cartilage matrix damage score: 5-point cartilage matrix score; key to Mean of all cartilage loss: approximate % loss, mean of four articular surfaces; Subchondral bone sclerosis: scale not given here
Text: For MIA trial 3, joints were fixed and toluidine blue–stained sections of the rat knees were comprehensively analyzed from test and control subjects as detailed in Additional file 1. Briefly, a 5-point cartilage matrix score was derived based upon (1) approximate percentage of total loss of articular chondrocytes for each of four articular surfaces, (2) estimated proteoglycan loss (via Safranin O staining), and (3) loss of interstitial matrix. Chondrocyte necrosis and proteolytic degeneration of the femurs were scored on a 5-point scale as in trial 1. A femoral cartilage degeneration score and a three-zone sum of the tibial cartilage degeneration scores (mean of three levels) were also summed to create a total cartilage degeneration score. The mean osteophyte score for each joint was added to this value to create a total joint score with matrix. Other parameters assessed included synovial membrane inflammation and proliferation. Representative images from each group were also collected (see, e.g., Fig. 4 and Additional file 1: Fig. S55, Trial 3). […]
Hawes, APS, Pathologist). Treatments were masked during the assessment. Chondrocyte necrosis and proteolytic degeneration of the femurs were scored on a 5 point scale with 0 = None; 1 = <10%; […]
For the histopathology of the MIA model in Trial 3, completed by Bolder BioPATH (and Dr.
Bendele), a tolouidine blue stained slide containing both halves of the joint was comprehensively analyzed from test and control subjects. Approximate % of total loss of articular chondrocytes, loss of proteoglycan and loss of collagenous matrix were determined for each articular surface (medial tibial plateau (MTP), lateral tibial plateau (LTP), medial femoral condyle (MFC), and lateral femoral condyle (LFC). Chondrocyte loss was quantified by estimating the area of cartilage in which there were no apparently viable chondrocytes and proteoglycan loss was quantified by estimating differences in intensity of toluidine blue matrix staining. Loss of interstitial matrix was an indication of disruption and diminished type II collagen. Based on the mean % loss for the four surfaces in these parameters, a five point matrix score was utilized with the subchondral bone resorption, subchondral bone sclerosis and osteophyte scores to achieve a total joint score. […]
[…] steps, stained with toluidine blue (with a right and left halve per section), and analyzed for cartilage degeneration, proteoglycan loss, collagen damage, and osteophyte formation. Results were averaged across the 3 sections for an overall semi-quantitative score. Regional differences across the tibial plateau were taken into consideration by dividing each section into 3 zones delineated using an ocular micrometer (outside, middle, and inside). Scores were based on the percentage of area affected within the zone.
Cartilage degeneration in the tibia was scored on a five point scale for each zone, collagen damage across the medial tibial plateau was measured by total width for each grade damage. Cartilage degeneration in the tibia was scored none to severe (numerical values 0-5) for each zone (area defined by micrometer) using the following criteria: […]

[6] = tested on: Normal human articular chondrocytes; assay: Cytotoxicity to chondrogenic pellets (CellTiter-Blue)
[7] = tested on: MMP-13; assay: MMP-13 ELISA on supernatants of TNF-α-treated chondrogenic pellets; format: cell-based, human

## Cc1cnc(NC(=O)C2=C(O)c3ccccc3S(=O)(=O)N2C)s1 [Meloxicam]
[1]; day 7
  dRS, hours after dosing with significant difference: 1 h
[1]; day 14
  dRS, hours after dosing with significant difference: 3 h
[2]
  Non-toxic & predicted range of efficacy: 16 to 32 µM
[2]; inhibits with minimal or no toxicity to synovium or cartilage, overlapping range if effective in more than one assay
  Overlapping effective and nontoxic range: 16 to 32 µM
[3]
  Effective range against Osteoclasts: Not effective
[4]
  Non-toxic range (Synovial): 0.25 to 16 µM
[5]; group mean, i.a. weekly
  Bone resorption percent, LFC: 0%
  Bone resorption percent, LTP: 0%
  Bone resorption percent, MFC: 15%
  Bone resorption percent, MTP: 15%
  Bone resorption percent, mean: 8%
  Bone resorption score: 1.0
  Cartilage matrix damage score: 1.0 and 1.0 ± 0.0
  Mean of all cartilage loss: 9.7
  Osteophyte measure: 146.7 µm
  Osteophyte score: 0.7
  Subchondral bone sclerosis: 0.3
  Total joint score w/o matrix: 2.0
  Total joint score with matrix: 3.0 and 3.0 ± 1.2
[5]; meloxicam 100 μg i.a.
  Decrease of total joint score vs vehicle controls: 47%
[6]
  Non-toxic range (Chondrocyte): 0.125 to 8 M
[7]
  Effective range against MMP-13: Not effective
